# From patent US20220347171A1, “TREATMENT OF PRURIGO NODULARIS” (TREVI THERAPEUTICS, INC., priority 2016, published 2022)
# Counter-ions that a name gives are not always drawn.
# Test system: prurigo nodularis patients
# Assay: Example 2 trial: average itch intensity NRS score
# Assay type: in vivo, human
# Details: 180 mg BID; end of treatment; 95% CI −2.764, −0.134; P=0.031
# Procedure: This clinical study was a double-blind, placebo-controlled trial in which prurigo nodularis patients were randomized in a 1:1:1 ratio to nalbuphine ER tablets to a target dose of 90 mg twice daily (BID), nalbuphine HCl ER tablets 180 mg BID, or placebo tablets BID. Use of nonsedating rescue antihistamine medications (non-first generation H1-antihistamines [Simons F E. Advances in H1-antihistamines. N Engl J Med. 2004; 351(21):2203-17.]) were allowed in the study but their use was recorded. Cleansing emollients were allowed for hygiene purposes provided there were no active substances (such as menthol or urea) contained in the lotion. A placebo comparator was chosen because there are no approved treatments for prurigo nodularis in the United States or Europe or an established standard of care that could serve as an active control.
# (1) The proportion of patients with at least a 30% reduction in the 7-day average daily diary-reported NRS itch intensity from baseline to the evaluation visit (Week 10). (2) The proportion of patients with at least a 50% reduction in the 7-day average daily diary-reported NRS itch intensity from baseline to the evaluation visit (Week 10). […] (5) Prurigo nodularis skin lesions, as quantitatively measured by the Prurigo Activity Score (PAS) recorded at baseline and during evaluation visit (Week 10). […]
structure (smiles),measurement,value
"Oc1ccc2c3c1OC1[C@@H](O)CC[C@@]4(O)[C@@H](C2)N(CC2CCC2)CC[C@]314 (stereo partly drawn) [Nalbuphine, 17-(cyclobutylmethyl)-4,5α-epoxymorphinian-3, 6α, 14-triol, hydrochloride]",LS mean treatment difference in change from baseline average itch intensity NRS score versus placebo,−1.45
